Experimental data published in patent US20190227053A1, “BIO-ELECTRIC NOSE” (NEW YORK UNIVERSITY, priority 2016, published 2019).

Tested on: olfactory bulb glomeruli
Assay: Odor detection by the bio-electronic nose (surface electrode array on the olfactory bulb)
Assay type: in vivo, mouse
Conditions: FIG. 10
Excerpt: In one embodiment utilizing an organism, such as a mouse, as the chemical detector, the mouse is anesthetized and a craniotomy will be made above one of the OBs. A grid electrode will be positioned on the surface of the bulb. The recording is optimized for different conditions: sub or epi-durally or through a thin layer of skull. Alternatively, a surface electrode can be implanted in conjunction with a probe (such as silicone) inserted to the bulb to obtain signals from higher processing levels, such as the mitral/tufted cells, to improve the filtration of early olfactory responses. Typically, the electrode is divided into several areas (1-4) of 8×8 electrode sites. […]
In one embodiment, a method of interpreting information from the at least one electrode relies on the development of reliable techniques for recording on the surface of the bulb and on algorithms for extracting odor information from these recordings. […] Theta waves, indicative of respiration, are used to verify inhalation in conjunction with readings from the pressure signal. […]
For […], at each session a mouse will be positioned in a head-fixed apparatus similar to that used for anesthetized recordings (FIG. 7). The sniffing/breathing pattern and signals continuously recorded from electrode array, and we will expose the mouse to multiple odor presentations (n˜500). […]

Compound | minimum detectable concentration (odorant detected by the bio-electronic nose) | EC50 (odorant presented to mouse with electrode array on olfactory bulb, read-out: minimum concentration (EC50) detected by the bio-electronic nose)
CCCCC(=O)OC [Methyl Valerate] | 10^−12 M | –
NCCc1ccccc1 [Phenylethylamine] | – | 0.01 nM
